Here are results for 19 molecules from ChEMBL document CHEMBL1201862, “PubChem BioAssay data set” (2004).

The nature of experiment [1]: microbe, parasite or virus in culture. Type of experiment: functional. The following applies: Mycobacterium tuberculosis.
The next experiment addresses T1, Protein RecA (Mycobacterium tuberculosis, UniProt P9WHJ3).
T1 sequence (P9WHJ3 whole entry): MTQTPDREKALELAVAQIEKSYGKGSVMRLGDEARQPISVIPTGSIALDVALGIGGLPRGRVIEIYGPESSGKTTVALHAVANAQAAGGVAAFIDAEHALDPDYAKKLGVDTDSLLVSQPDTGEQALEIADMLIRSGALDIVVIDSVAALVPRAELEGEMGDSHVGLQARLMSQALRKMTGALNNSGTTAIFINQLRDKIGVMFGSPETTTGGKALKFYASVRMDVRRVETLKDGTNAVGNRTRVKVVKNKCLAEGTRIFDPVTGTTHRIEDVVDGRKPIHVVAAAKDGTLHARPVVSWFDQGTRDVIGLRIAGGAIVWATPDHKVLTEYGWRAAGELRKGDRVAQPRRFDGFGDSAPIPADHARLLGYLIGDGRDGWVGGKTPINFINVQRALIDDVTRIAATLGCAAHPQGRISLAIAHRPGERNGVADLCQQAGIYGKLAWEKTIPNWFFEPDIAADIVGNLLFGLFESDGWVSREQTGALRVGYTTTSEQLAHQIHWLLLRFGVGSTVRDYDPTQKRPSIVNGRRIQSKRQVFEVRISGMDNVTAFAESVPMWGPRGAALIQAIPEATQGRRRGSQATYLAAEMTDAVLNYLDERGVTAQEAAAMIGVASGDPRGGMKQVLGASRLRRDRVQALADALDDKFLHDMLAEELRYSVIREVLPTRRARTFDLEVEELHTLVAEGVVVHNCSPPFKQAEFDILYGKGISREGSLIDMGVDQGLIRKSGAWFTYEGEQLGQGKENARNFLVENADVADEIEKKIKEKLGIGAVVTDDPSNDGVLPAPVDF
Description: Fluorescence Cell-Free Homogeneous Dose Retest to Identify Inhibitors of RecA-Intein Splicing Activity. [Related pubchem assays (depositor defined):AID2097, AID2223, AID489010, AID492950]. The class given is functional.

The target of experiment [2] is T2, Replicative DNA helicase DnaB (Mycobacterium tuberculosis, UniProt P9WMR3).
T2 sequence (P9WMR3 whole entry): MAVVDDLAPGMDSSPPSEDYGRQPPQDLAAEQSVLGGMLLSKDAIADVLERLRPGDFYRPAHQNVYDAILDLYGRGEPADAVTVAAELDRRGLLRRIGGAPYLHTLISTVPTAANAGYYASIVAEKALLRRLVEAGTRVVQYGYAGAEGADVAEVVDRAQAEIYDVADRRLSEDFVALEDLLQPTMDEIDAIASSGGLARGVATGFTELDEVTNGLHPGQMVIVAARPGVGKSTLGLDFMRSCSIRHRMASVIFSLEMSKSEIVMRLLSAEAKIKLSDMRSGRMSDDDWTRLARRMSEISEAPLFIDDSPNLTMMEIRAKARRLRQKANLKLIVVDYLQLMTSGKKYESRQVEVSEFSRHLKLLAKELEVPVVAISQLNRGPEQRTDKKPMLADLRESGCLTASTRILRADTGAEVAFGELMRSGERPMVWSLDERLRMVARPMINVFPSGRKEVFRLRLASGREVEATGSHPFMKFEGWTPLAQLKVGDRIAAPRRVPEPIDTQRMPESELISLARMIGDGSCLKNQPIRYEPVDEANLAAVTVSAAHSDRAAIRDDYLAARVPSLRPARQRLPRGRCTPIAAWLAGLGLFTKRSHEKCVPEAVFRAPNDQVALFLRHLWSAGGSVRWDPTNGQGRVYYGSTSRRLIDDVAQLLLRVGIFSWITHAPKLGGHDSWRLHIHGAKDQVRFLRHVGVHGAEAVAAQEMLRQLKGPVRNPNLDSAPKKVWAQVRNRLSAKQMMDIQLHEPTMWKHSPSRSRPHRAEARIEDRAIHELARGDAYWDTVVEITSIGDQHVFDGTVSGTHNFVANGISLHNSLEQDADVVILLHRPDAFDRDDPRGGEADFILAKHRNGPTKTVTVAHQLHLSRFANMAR
Description: DnaB intein splicing inhibitors, dose response, biochemical, cell-free fluorescence (AID 449749). Type of experiment: functional.

Experiment [3] is described as follows: Luminescence Cell-Based Dose Response HTS to Identify Activators of Luciferase Translation or Activity in H4 […] Cells. [Related pubchem assays: 1829 (Project Summary), 1814 (Primary HTS)]. The class given is functional.
The subject of another experiment is H4. Description: Luminescence Cell-Based Dose Response HTS to Identify Activators of 5'UTR Stem-Loop Driven Prion Protein mRNA Translation in H4 Neuroglioblastoma Cells. [Related pubchem assays: 1829 (Project Summary), 1814 (Primary HTS)]. Type of experiment: functional. The following applies: Homo sapiens.
A short description of experiment [4]: Luminescence Cell-Based Dose Confirmation HTS to Identify Activators of 5'UTR Stem-Loop Driven Alpha-Synuclein mRNA Translation in H4 Neuroglioblastoma Cells. [Related pubchem assays: 1829 (Project Summary), 1814 (Primary HTS)]. The class given is functional.
The target in experiment [5] is T3, Corticotropin-releasing factor receptor 2/Corticotropin-releasing factor-binding protein (Homo sapiens, UniProt P24387+Q13324).
T3 sequence (Q13324 whole entry): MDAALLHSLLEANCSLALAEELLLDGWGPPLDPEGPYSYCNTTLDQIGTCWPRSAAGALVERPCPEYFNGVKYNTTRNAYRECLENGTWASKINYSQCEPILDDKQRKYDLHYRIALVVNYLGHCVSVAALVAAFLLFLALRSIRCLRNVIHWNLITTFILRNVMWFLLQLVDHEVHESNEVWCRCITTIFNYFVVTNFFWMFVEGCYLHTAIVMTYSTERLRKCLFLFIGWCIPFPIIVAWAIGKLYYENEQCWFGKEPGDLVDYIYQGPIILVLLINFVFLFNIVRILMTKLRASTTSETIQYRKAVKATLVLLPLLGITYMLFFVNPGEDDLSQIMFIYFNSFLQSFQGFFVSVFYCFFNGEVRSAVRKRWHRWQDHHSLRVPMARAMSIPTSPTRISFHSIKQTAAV
T3 sequence (P24387 whole entry): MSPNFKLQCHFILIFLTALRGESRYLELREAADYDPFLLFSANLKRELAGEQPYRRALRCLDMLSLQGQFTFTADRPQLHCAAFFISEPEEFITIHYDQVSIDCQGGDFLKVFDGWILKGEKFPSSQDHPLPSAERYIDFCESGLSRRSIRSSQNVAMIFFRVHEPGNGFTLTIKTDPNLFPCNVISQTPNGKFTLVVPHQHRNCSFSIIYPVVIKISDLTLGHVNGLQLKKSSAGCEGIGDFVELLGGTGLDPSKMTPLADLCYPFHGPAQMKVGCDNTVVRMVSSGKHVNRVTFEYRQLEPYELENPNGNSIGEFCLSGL
Briefly: activators of CRF receptor 2 with binding protein – uHTS hits, confirmation (AID 602473). The class given is functional. The note with it: read-out: EC50_Mean.

Experiment [6] has as its target T3, Corticotropin-releasing factor receptor 2/Corticotropin-releasing factor-binding protein. Briefly: Dose Response confirmation of uHTS hits for small molecule antagonists of the CRF-binding protein and CRF-R2 receptor complex. Type of experiment: functional. The note with it: read-out: IC50_Mean.
In experiment [7] the target is T4, Polyadenylate-binding protein 1 (Homo sapiens, UniProt P11940). Description: PABP1 MLLE–PAM2 interaction inhibitors, dose response, miRNA deadenylation inhibitor project, biochemical, fluorescence polarization, Cy5-PAM2 peptide, secondary (AID 602260). Type of experiment: functional. The note with it: read-out: IC50_Mean. (Fluorescence polarisation rises when a labelled molecule tumbles more slowly, as on binding a larger partner.)

In experiment [8] the target is T4, Polyadenylate-binding protein 1. Description: PABP1 MLLE–PAM2 binding inhibitor potency, dose response, biochemical, fluorescence polarization, FITC-PAM2 peptide (AID 602259). The class given is functional. The note with it: read-out: IC50_Mean.
The target of the next experiment is Cytochrome P450 2C19 (Homo sapiens, UniProt P33261). Briefly: Cytochrome panel assay with activity outcomes. Panel member name: p450-cyp2c19 Compounds with AC50 equal or less than 10 uM are considered active. The note with it: read-out: AC50. Type of experiment: functional.
Experiment [9] is described as follows: P. falciparum Dd2 growth inhibitors, dose response, SYBR Green, cherry-picked samples (AID 1159567). Type of experiment: functional, cell-based.

Activity calls are given as the source filed them.

T4 sequence (P11940 whole entry): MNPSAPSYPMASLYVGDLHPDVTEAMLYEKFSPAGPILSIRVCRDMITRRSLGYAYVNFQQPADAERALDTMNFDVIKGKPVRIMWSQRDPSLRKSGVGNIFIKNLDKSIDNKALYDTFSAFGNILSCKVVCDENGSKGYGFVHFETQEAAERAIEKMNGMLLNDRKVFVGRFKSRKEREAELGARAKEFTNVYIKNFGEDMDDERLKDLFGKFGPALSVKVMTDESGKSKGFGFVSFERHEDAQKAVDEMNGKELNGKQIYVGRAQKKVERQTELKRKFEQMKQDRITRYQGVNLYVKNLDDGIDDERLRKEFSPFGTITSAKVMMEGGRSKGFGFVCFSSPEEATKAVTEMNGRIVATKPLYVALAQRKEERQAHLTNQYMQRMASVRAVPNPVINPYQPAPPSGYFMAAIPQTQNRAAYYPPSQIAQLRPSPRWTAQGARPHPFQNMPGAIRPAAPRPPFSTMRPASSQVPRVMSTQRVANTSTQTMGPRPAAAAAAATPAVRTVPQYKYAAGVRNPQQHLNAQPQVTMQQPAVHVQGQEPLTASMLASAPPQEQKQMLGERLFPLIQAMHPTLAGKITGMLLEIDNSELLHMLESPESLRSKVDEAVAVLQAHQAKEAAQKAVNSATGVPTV
Sequence of Cytochrome P450 2C19 (P33261 whole entry): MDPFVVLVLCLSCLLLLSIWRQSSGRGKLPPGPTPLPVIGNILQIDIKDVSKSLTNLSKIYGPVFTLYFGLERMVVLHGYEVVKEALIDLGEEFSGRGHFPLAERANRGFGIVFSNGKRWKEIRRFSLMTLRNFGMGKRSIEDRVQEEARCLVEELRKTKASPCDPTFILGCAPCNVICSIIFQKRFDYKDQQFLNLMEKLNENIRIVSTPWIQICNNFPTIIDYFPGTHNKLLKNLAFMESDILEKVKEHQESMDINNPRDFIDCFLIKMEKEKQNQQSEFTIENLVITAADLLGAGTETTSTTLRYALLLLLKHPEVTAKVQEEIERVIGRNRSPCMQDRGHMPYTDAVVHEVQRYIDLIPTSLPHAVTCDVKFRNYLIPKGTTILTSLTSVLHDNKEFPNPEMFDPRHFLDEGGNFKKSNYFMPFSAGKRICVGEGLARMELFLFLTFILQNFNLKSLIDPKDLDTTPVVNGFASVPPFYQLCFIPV

Take `O=C(Nc1ccc(Cl)cc1)N1CCN(c2ccc3nnc(-c4ccc(F)cc4)n3n2)CC1`: the CC50 in [1] was 19.3 µM (active).

Regarding `CCOC(=O)c1c(CC(C)C)csc1NC(=O)CCl`, the EC50 at Protein RecA is 2.39 µM (active). Moreover, in [2], the AC50 – broadly, the midpoint of the concentration-response curve, whichever way the signal moves – is 9.8 µM (active). Also, the CC50 in experiment [1] was > 40 µM (active).

Regarding `CCOc1ccc(-c2nc(C)c(C(C)=O)n2O)cc1`, the EC50 in experiment [3] is 9.13 µM (active); with H4, 8.13 µM (active); in [4], 14.1 µM (active).

In the case of `COc1ccc(C2(c3ccc(OC)cc3)NC(=O)N(CC(=O)Nc3ccc(OC(F)F)cc3)C2=O)cc1`, the CC50 in experiment [1] was 36.2 µM (active).

With `Clc1ccc(SCc2cn3ccsc3n2)cc1`, the EC50 was 21 µM (active) in experiment [3], > 120 µM (not active) in the experiment on H4 and 89.9 µM (active) in [4].

As for `COc1cc2[nH]c3c(N4CCN(c5ccccn5)CC4)ncnc3c2cc1OC`, the CC50 in experiment [1] was 11.1 µM (active).

As to `Cc1c(-c2ccc(Cl)cc2)[n+]([O-])c(-c2ccccc2)c[n+]1[O-]`, the EC50 was > 120 µM (not active) in experiment [3], > 120 µM (not active) with H4, > 53 µM (inactive) in experiment [5] and > 120 µM (not active) in [4]. In addition, in experiment [6], the IC50 was > 47.1 µM (inactive).

As for `Cc1ccc(C(=O)c2nc3c(n2O)CCCC3)cc1`, the results for the EC50 (in experiment [3]; in the experiment on H4; in experiment [4]) were > 120 µM (not active), 25.7 µM (active) and > 120 µM (not active), respectively.

As to `COc1cccc(Nc2ccc([N+](=O)[O-])c3nonc23)c1`, the CC50 in [1] is > 40 µM (active).

Take `CC(Oc1ccc2c(c1)c1ccnc3c4ccccc4c(=O)n2c13)C(=O)NCCN1CCOCC1` (configuration not stated): the EC50 in experiment [3] was 12.5 µM (active); in the experiment with H4, > 120 µM (not active); in experiment [4], 19.6 µM (active).

As to `COc1cccc(NC(=S)N/N=C2/CCCCc3ccccc32)c1`, the EC50 in [3] is 8.02 µM (active); in the experiment with H4 it was 33.6 µM (active); in experiment [4], 7.09 µM (active). Moreover, the IC50 in experiment [7] and in [8] was > 66 µM (inactive) in each case.

Take `OCC(O)/C=N/Nc1nc(Nc2ccccc2)nc(Nc2ccccc2)n1` (configuration not stated): the CC50 in experiment [1] is > 40 µM (active).

For the molecule `COc1ccc(-c2nn(-c3ccccc3)cc2/C=N/NC(=O)c2ccc3c(c2)OCO3)cc1`, the EC50 in [3] was 12.2 µM (active); with H4, 18.5 µM (active); in experiment [4], 18.3 µM (active). Moreover, at Cytochrome P450 2C19, the AC50 was 2.24 µM (inconclusive).

As for `C/C(=N\NC(=O)CN1CCCCC1)c1cccc([N+](=O)[O-])c1`, the EC50 in experiment [3] was 9.5 µM (active); in the experiment with H4, 26.9 µM (active); in experiment [4], 13.6 µM (active).

Take `COc1ccc2c3c(n(C)c2c1)[C@@H](CO)N(S(C)(=O)=O)CC31CCN(C(=O)CN(C)C)CC1`: in experiment [9], the AC50 is 4.28 µM (active).

`CCCN(C)C[C@@H]1Oc2cc(C#Cc3ccccc3)ccc2S(=O)(=O)N([C@@H](C)CO)C[C@@H]1C`: the AC50 in experiment [9] is 4.59 µM (active).

Take `O=C(C1CCCC1)N1CC(=O)N2[C@H](CO)[C@@H](c3ccc(C#CCc4ccccc4)cc3)[C@@H]2C1`: the concentration at half-maximal activity (AC50) in [9] is 6.57 µM (active).

`CO[C@@H]1CN(C)C(=O)c2ccc(NC(=O)c3nc4ccccc4s3)cc2OC[C@H](C)N(Cc2cccnc2)C[C@@H]1C`: the half-maximal activity concentration (AC50) in experiment [9] is 5 µM (active).

As for `COc1ccc2c3c([nH]c2c1)[C@H](CO)N(Cc1cccc(Cl)c1)CC31CCN(C(C)=O)CC1`, the half-maximal activity concentration (AC50) in experiment [9] was 4.26 µM (active).
